Laboratory results as given in PubChem BioAssay (NCI).
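Each compound was tested at five concentrations against cells in 96-well plates for 48 hours. TGI denotes the concentration required for complete inhibition of growth.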

Columns and labels:
Assay in all cases: NCI anticancer screen, dose series, 48 h
CCRF-CEM leukemia = test system: CCRF-CEM leukemia
SNB-75 CNS = test system: SNB-75 CNS
XF 498 CNS = test system: XF 498 CNS
NCI-H23 lung = test system: NCI-H23 lung
SNB-19 CNS = test system: SNB-19 CNS
HL-60(TB) leukemia = test system: HL-60(TB) leukemia
SF-295 CNS = test system: SF-295 CNS
A549 NSCLC = test system: A549 NSCLC
RPMI-8226 leukemia = test system: RPMI-8226 leukemia
786-0 renal = test system: 786-0 renal
SF-268 CNS = test system: SF-268 CNS
K-562 leukemia = test system: K-562 leukemia
KM12 colon = test system: KM12 colon
SK-MEL-2 melanoma = test system: SK-MEL-2 melanoma
OVCAR-4 ovarian = test system: OVCAR-4 ovarian
NCI-H226 lung = test system: NCI-H226 lung
U251 CNS = test system: U251 CNS
HOP-62 NSCLC = test system: HOP-62 NSCLC
UO-31 renal = test system: UO-31 renal
EKVX NSCLC = test system: EKVX NSCLC
M19-MEL melanoma = test system: M19-MEL melanoma
OVCAR-5 ovarian = test system: OVCAR-5 ovarian
LOX IMVI melanoma = test system: LOX IMVI melanoma
TK-10 renal = test system: TK-10 renal
HOP-92 NSCLC = test system: HOP-92 NSCLC
M14 melanoma = test system: M14 melanoma
SN12C renal = test system: SN12C renal
HCT-15 colon = test system: HCT-15 colon
SNB-78 CNS = test system: SNB-78 CNS
IGROV1 ovarian = test system: IGROV1 ovarian
NCI-H460 lung = test system: NCI-H460 lung
DMS 114 small cell lung = test system: DMS 114 small cell lung
CAKI-1 renal = test system: CAKI-1 renal
COLO 205 colon = test system: COLO 205 colon
SF-539 CNS = test system: SF-539 CNS
OVCAR-3 ovarian = test system: OVCAR-3 ovarian
SW-620 colon = test system: SW-620 colon
OVCAR-8 ovarian = test system: OVCAR-8 ovarian
HCC-2998 colon = test system: HCC-2998 colon
UACC-257 melanoma = test system: UACC-257 melanoma
HOP-18 NSCLC = test system: HOP-18 NSCLC
SK-MEL-5 melanoma = test system: SK-MEL-5 melanoma
RXF 393 renal = test system: RXF 393 renal
DLD-1 colon = test system: DLD-1 colon
UACC-62 melanoma = test system: UACC-62 melanoma
KM20L2 colon = test system: KM20L2 colon
MALME-3M melanoma = test system: MALME-3M melanoma
MOLT-4 leukemia = test system: MOLT-4 leukemia
DMS 273 small cell lung = test system: DMS 273 small cell lung
SK-OV-3 ovarian = test system: SK-OV-3 ovarian
NCI-H522 lung = test system: NCI-H522 lung
LXFL 529 NSCLC = test system: LXFL 529 NSCLC
A498 renal = test system: A498 renal
SR leukemia = test system: SR leukemia
HCT-116 colon = test system: HCT-116 colon
ACHN renal = test system: ACHN renal
HT29 colon = test system: HT29 colon
SK-MEL-28 melanoma = test system: SK-MEL-28 melanoma

For `O=C1c2c(c(-c3ccccc3)c(-c3ccccc3)c(-c3ccccc3)c2-c2ccccc2)C(=O)N1c1cccc(Br)c1`, the TGI (CCRF-CEM leukemia) was over 100 µM, the TGI (SNB-75 CNS) was over 100 µM and the TGI (XF 498 CNS) was over 100 µM. The TGI (NCI-H23 lung) was over 100 µM, the TGI (SNB-19 CNS) was over 100 µM and the TGI (HL-60(TB) leukemia) was over 100 µM. It also gave a TGI (SF-295 CNS) of over 100 µM, a TGI (A549 NSCLC) of over 100 µM and a TGI (RPMI-8226 leukemia) of over 100 µM. The TGI (786-0 renal) was over 100 µM, the TGI (SF-268 CNS) was over 100 µM and the TGI (K-562 leukemia) was over 100 µM. For the same compound, the TGI (KM12 colon) was over 100 µM, the TGI (SK-MEL-2 melanoma) was over 100 µM and the TGI (OVCAR-4 ovarian) was over 100 µM. For the same compound, the TGI (NCI-H226 lung) was over 100 µM, the TGI (U251 CNS) was over 100 µM and the TGI (HOP-62 NSCLC) was over 100 µM. The TGI (UO-31 renal) was over 100 µM, the TGI (EKVX NSCLC) was over 100 µM and the TGI (M19-MEL melanoma) was over 100 µM. It also gave a TGI (OVCAR-5 ovarian) of over 100 µM, a TGI (LOX IMVI melanoma) of over 100 µM and a TGI (TK-10 renal) of over 100 µM. The TGI (HOP-92 NSCLC) was over 100 µM, the TGI (M14 melanoma) was over 100 µM and the TGI (SN12C renal) was over 100 µM. For the same compound, the TGI (HCT-15 colon) was over 100 µM, the TGI (SNB-78 CNS) was over 100 µM and the TGI (IGROV1 ovarian) was over 100 µM. The TGI (NCI-H460 lung) was over 100 µM, the TGI (DMS 114 small cell lung) was over 100 µM and the TGI (CAKI-1 renal) was over 100 µM. For the same compound, the TGI (COLO 205 colon) was over 100 µM, the TGI (SF-539 CNS) was over 100 µM and the TGI (OVCAR-3 ovarian) was over 100 µM. For the same compound, the TGI (SW-620 colon) was over 100 µM, the TGI (OVCAR-8 ovarian) was over 100 µM and the TGI (HCC-2998 colon) was over 100 µM. The TGI (UACC-257 melanoma) was over 100 µM, the TGI (HOP-18 NSCLC) was over 100 µM and the TGI (SK-MEL-5 melanoma) was over 100 µM. The TGI (RXF 393 renal) was over 100 µM, the TGI (DLD-1 colon) was over 100 µM and the TGI (UACC-62 melanoma) was over 100 µM. For the same compound, the TGI (KM20L2 colon) was over 100 µM, the TGI (MALME-3M melanoma) was over 100 µM and the TGI (MOLT-4 leukemia) was over 100 µM. The TGI (DMS 273 small cell lung) was over 100 µM, the TGI (SK-OV-3 ovarian) was over 100 µM and the TGI (NCI-H522 lung) was over 100 µM. It also gave a TGI (LXFL 529 NSCLC) of over 100 µM, a TGI (A498 renal) of over 100 µM and a TGI (SR leukemia) of over 100 µM. For the same compound, the TGI (HCT-116 colon) was over 100 µM.
Work on `COc1ccc2c(c1)[n+](=O)c(C(=O)C/C(=N/NC(=O)c1ccccc1O)C(=O)Nc1ccc(Cl)c(C(F)(F)F)c1)c(C)n2[O-]` yielded a TGI (CCRF-CEM leukemia) of over 100 µM, a TGI (SNB-75 CNS) of over 100 µM and a TGI (XF 498 CNS) of over 100 µM. It also gave a TGI (NCI-H23 lung) of over 100 µM, a TGI (SNB-19 CNS) of over 100 µM and a TGI (SF-295 CNS) of over 100 µM. The TGI (A549 NSCLC) was over 100 µM, the TGI (786-0 renal) was over 100 µM and the TGI (SF-268 CNS) was over 100 µM. It also gave a TGI (K-562 leukemia) of over 100 µM, a TGI (KM12 colon) of over 100 µM and a TGI (ACHN renal) of over 100 µM. It also gave a TGI (SK-MEL-2 melanoma) of over 100 µM, a TGI (OVCAR-4 ovarian) of over 100 µM and a TGI (NCI-H226 lung) of over 100 µM. For the same compound, the TGI (U251 CNS) was over 100 µM, the TGI (HOP-62 NSCLC) was over 100 µM and the TGI (UO-31 renal) was 50.5 µM. It also gave a TGI (EKVX NSCLC) of over 100 µM, a TGI (M19-MEL melanoma) of over 100 µM and a TGI (OVCAR-5 ovarian) of over 100 µM. It also gave a TGI (LOX IMVI melanoma) of over 100 µM, a TGI (TK-10 renal) of over 100 µM and a TGI (HOP-92 NSCLC) of over 100 µM. It also gave a TGI (M14 melanoma) of over 100 µM, a TGI (SN12C renal) of over 100 µM and a TGI (HCT-15 colon) of over 100 µM. It also gave a TGI (SNB-78 CNS) of over 100 µM, a TGI (IGROV1 ovarian) of over 100 µM and a TGI (NCI-H460 lung) of over 100 µM. For the same compound, the TGI (DMS 114 small cell lung) was over 100 µM, the TGI (HT29 colon) was over 100 µM and the TGI (COLO 205 colon) was over 100 µM. It also gave a TGI (SF-539 CNS) of over 100 µM, a TGI (OVCAR-3 ovarian) of 87.1 µM and a TGI (SW-620 colon) of over 100 µM. For the same compound, the TGI (OVCAR-8 ovarian) was over 100 µM, the TGI (HCC-2998 colon) was over 100 µM and the TGI (UACC-257 melanoma) was over 100 µM. It also gave a TGI (HOP-18 NSCLC) of over 100 µM, a TGI (SK-MEL-5 melanoma) of over 100 µM and a TGI (RXF 393 renal) of over 100 µM. The TGI (DLD-1 colon) was over 100 µM, the TGI (SK-MEL-28 melanoma) was over 100 µM and the TGI (UACC-62 melanoma) was over 100 µM. It also gave a TGI (KM20L2 colon) of over 100 µM, a TGI (MALME-3M melanoma) of over 100 µM and a TGI (MOLT-4 leukemia) of over 100 µM. It also gave a TGI (DMS 273 small cell lung) of over 100 µM, a TGI (SK-OV-3 ovarian) of over 100 µM and a TGI (NCI-H522 lung) of over 100 µM. The TGI (LXFL 529 NSCLC) was over 100 µM, the TGI (A498 renal) was over 100 µM and the TGI (HCT-116 colon) was over 100 µM.
Work on `CC1(C)O[C@@H](CC/C=C/CO)[C@H](CC/C=C/CO)O1` yielded a TGI (CCRF-CEM leukemia) of over 100 µM, a TGI (SNB-75 CNS) of over 100 µM and a TGI (XF 498 CNS) of over 100 µM. For the same compound, the TGI (NCI-H23 lung) was over 100 µM, the TGI (SNB-19 CNS) was over 100 µM and the TGI (HL-60(TB) leukemia) was over 100 µM. The TGI (SF-295 CNS) was over 100 µM, the TGI (A549 NSCLC) was over 100 µM and the TGI (RPMI-8226 leukemia) was over 100 µM. For the same compound, the TGI (786-0 renal) was over 100 µM, the TGI (SF-268 CNS) was over 100 µM and the TGI (K-562 leukemia) was over 100 µM. For the same compound, the TGI (KM12 colon) was over 100 µM, the TGI (ACHN renal) was over 100 µM and the TGI (SK-MEL-2 melanoma) was over 100 µM. It also gave a TGI (OVCAR-4 ovarian) of over 100 µM, a TGI (NCI-H226 lung) of over 100 µM and a TGI (U251 CNS) of over 100 µM. The TGI (HOP-62 NSCLC) was over 100 µM, the TGI (EKVX NSCLC) was over 100 µM and the TGI (M19-MEL melanoma) was over 100 µM. The TGI (OVCAR-5 ovarian) was over 100 µM, the TGI (LOX IMVI melanoma) was over 100 µM and the TGI (TK-10 renal) was over 100 µM. The TGI (HOP-92 NSCLC) was over 100 µM, the TGI (M14 melanoma) was over 100 µM and the TGI (SN12C renal) was over 100 µM. The TGI (HCT-15 colon) was over 100 µM, the TGI (SNB-78 CNS) was over 100 µM and the TGI (IGROV1 ovarian) was over 100 µM. For the same compound, the TGI (NCI-H460 lung) was over 100 µM, the TGI (DMS 114 small cell lung) was over 100 µM and the TGI (HT29 colon) was over 100 µM. For the same compound, the TGI (CAKI-1 renal) was over 100 µM, the TGI (COLO 205 colon) was over 100 µM and the TGI (SF-539 CNS) was over 100 µM. The TGI (OVCAR-3 ovarian) was over 100 µM, the TGI (SW-620 colon) was over 100 µM and the TGI (OVCAR-8 ovarian) was over 100 µM. For the same compound, the TGI (HCC-2998 colon) was over 100 µM, the TGI (UACC-257 melanoma) was over 100 µM and the TGI (HOP-18 NSCLC) was over 100 µM. It also gave a TGI (SK-MEL-5 melanoma) of over 100 µM, a TGI (DLD-1 colon) of over 100 µM and a TGI (SK-MEL-28 melanoma) of over 100 µM. It also gave a TGI (KM20L2 colon) of over 100 µM, a TGI (MALME-3M melanoma) of over 100 µM and a TGI (MOLT-4 leukemia) of over 100 µM. It also gave a TGI (DMS 273 small cell lung) of over 100 µM, a TGI (SK-OV-3 ovarian) of over 100 µM and a TGI (NCI-H522 lung) of over 100 µM. For the same compound, the TGI (LXFL 529 NSCLC) was over 100 µM, the TGI (A498 renal) was over 100 µM and the TGI (SR leukemia) was over 100 µM. For the same compound, the TGI (HCT-116 colon) was over 100 µM.
